From PMC8379015, “Resistance of Mycobacterium tuberculosis to indole 4-carboxamides occurs through alterations in drug metabolism and tryptophan biosynthesis” (Cell Chemical Biology, 2021)
In brackets after ≈: the same amount, converted by molar mass. Like-named read-outs stand apart in the source and are kept apart here.

What was measured:
M. tuberculosis H37Rv = test: microbe, parasite or virus in culture; format: cell-based; conditions: Mycobacterium tuberculosis
Mtb = format: cell-based, Mycobacterium tuberculosis
TrpAB α reaction = biological target: T1, TrpAB α reaction (Mycobacterium tuberculosis, UniProt P9WFX9+P9WFY1); test: biochemical
T1 construct: His6 (N); made in house; host or cells: E. coli BL21(DE3)

TrpAB β reaction = biological target: T2, TrpAB β reaction (Mycobacterium tuberculosis, UniProt P9WFX9+P9WFY1); test: biochemical; format: biochemical
T2 construct: His6 (N); made in house; host or cells: E. coli BL21(DE3)

TrpE = test system: TrpE; design: method as in Negatu et al., 2019; conditions: ref Negatu et al., 2019; read-out: IC50 TrpE (allosteric inhibition); cited from earlier work
M. smegmatis mc2155 = test: microbe, parasite or virus in culture; format: cell-based, Mycobacterium smegmatis; conditions: for MIC: Mycolicibacterium smegmatis, MC2155, read-out: MIC vs M. smegmatis mc2155
M. bovis BCG = test: microbe, parasite or virus in culture; format: cell-based, Mycobacterium bovis BCG
TrpAB WT = biological target: T3, TrpAB WT (Mycobacterium tuberculosis, UniProt P9WFX9+P9WFY1); format: biochemical
T3 construct: His6 (N); made in house; host or cells: E. coli BL21(DE3)

[1] = test system: intracellular Mtb H37Rv in J774 macrophages; format: cell-based, Mycobacterium tuberculosis
TrpE WT = biological target: T4, TrpE WT (Mycobacterium tuberculosis, UniProt P9WFX3); format: biochemical
T4 construct: His6 (N); made in house; host or cells: E. coli BL21(DE3)
T4 sequence (P9WFX3 1-516): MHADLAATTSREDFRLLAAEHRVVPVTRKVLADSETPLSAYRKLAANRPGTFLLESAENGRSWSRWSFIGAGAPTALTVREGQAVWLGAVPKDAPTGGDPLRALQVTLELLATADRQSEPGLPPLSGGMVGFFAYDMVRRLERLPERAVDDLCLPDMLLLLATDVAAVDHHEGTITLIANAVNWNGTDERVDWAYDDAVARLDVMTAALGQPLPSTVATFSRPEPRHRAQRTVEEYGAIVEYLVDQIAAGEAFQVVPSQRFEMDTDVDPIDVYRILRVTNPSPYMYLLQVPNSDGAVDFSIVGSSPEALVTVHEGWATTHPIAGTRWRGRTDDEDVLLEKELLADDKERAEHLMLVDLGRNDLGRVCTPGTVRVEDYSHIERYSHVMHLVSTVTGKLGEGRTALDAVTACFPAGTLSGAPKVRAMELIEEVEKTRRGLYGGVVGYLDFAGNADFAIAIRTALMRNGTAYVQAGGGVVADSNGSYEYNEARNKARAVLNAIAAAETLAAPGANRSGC

J774 macrophages = conditions: 24 hrs, CellTiter-Glo

T2 sequence (P9WFX9 whole entry): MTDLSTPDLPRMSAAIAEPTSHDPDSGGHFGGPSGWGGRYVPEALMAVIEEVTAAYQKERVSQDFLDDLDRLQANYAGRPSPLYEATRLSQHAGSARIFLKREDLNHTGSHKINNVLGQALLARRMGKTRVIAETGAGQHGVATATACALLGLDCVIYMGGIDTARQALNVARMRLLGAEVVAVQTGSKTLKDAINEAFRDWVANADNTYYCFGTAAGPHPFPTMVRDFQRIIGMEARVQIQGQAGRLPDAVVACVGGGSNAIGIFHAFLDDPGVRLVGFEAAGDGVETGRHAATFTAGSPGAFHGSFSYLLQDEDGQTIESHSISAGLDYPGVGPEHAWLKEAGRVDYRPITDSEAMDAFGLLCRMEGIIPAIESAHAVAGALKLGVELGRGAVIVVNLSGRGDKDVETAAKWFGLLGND
T2 sequence (P9WFY1 whole entry): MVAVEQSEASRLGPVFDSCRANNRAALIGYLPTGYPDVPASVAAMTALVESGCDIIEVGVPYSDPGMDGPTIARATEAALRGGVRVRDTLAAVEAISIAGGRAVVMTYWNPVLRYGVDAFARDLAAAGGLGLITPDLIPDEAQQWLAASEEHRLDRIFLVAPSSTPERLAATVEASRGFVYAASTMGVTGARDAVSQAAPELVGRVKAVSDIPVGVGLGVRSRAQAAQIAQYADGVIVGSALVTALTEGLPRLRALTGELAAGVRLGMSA
T1 sequence (P9WFX9 whole entry): as the sequence (P9WFX9 whole entry) above
T1 sequence (P9WFY1 whole entry): as the sequence (P9WFY1 whole entry) above
T3 sequence (P9WFX9 whole entry): as the sequence (P9WFX9 whole entry) above
T3 sequence (P9WFY1 whole entry): as the sequence (P9WFY1 whole entry) above

Molecule	MIC (M. tuberculosis H37Rv) [µM]	MIC (M. tuberculosis H37Rv; read-out: MIC) [µM]	other results
Nc1cccc2[nH]ccc12 [4-AI, 4-aminoindole, reference compound]	4.68 (≈ 0.619 µg/mL)	–	MIC (M. tuberculosis H37Rv; read-out: MIC against Mtb): 4.68 µM (≈ 0.619 µg/mL); increase of MIC on supplementation (Mtb): 4- to 16 fold; IC50 (TrpAB α reaction): 631 ± 174 µM; IC50 (TrpAB β reaction): 649.4 ± 2.5 µM
Nc1cccc2[nH]cc(C[C@H](N)C(=O)O)c12 [4-aTrp, 4-amino-L-tryptophan]	–	–	MIC (M. tuberculosis H37Rv; read-out: MIC against Mtb): > 100 µM
N[C@@H](Cc1c[nH]c2ccc(F)cc12)C(=O)O [5-fluorotryptophan]	–	–	IC50 (TrpE): 4 µM
O=C(O)c1ccc(OCC(F)(F)F)nc1 [C1-COOH, 6-(2,2,2-trifluoroethoxy)nicotinic acid]	50 (≈ 11.1 µg/mL)	–	–
O=C(COc1ccccc1)Nc1cccc2[nH]ccc12 [C2, N-(1H-indol-4-yl)-2-phenoxyacetamide]	–	–	MIC (M. smegmatis mc2155): > 100 µM
O=C(O)COc1ccccc1 [C2-COOH, 2-phenoxyacetic acid]	> 100	–	–
O=C(Nc1cccc2[nH]ccc12)C1CCCCC1 [C3, N-(1H-indol-4-yl)cyclohexanecarboxamide]	–	12.5 (≈ 3.03 µg/mL)	MIC vs M. bovis BCG (M. bovis BCG): 50 µM (≈ 12.1 µg/mL); MIC (M. bovis BCG; Mycobacterium tuberculosis variant bovis BCG, BCG, read-out: MIC vs M. bovis BCG): > 100 µM; MIC (M. smegmatis mc2155): > 100 µM
O=C(O)C1CCCCC1 [C3-COOH, cyclohexanecarboxylic acid]	> 100	–	–
O=C(Nc1cccc2[nH]ccc12)c1ccc(OCC(F)(F)F)cn1 [C4, N-(1H-indol-4-yl)-5-(2,2,2-trifluoroethoxy)picolinamide]	–	–	MIC (M. smegmatis mc2155): > 100 µM
O=C(O)c1ccc(OCC(F)(F)F)cn1 [C4-COOH, 5-(2,2,2-trifluoroethoxy)picolinic acid]	> 100	–	–
CNS(=O)(=O)c1ccc2c(c1)CCN2C(=O)c1ccc(C)s1 [C5, reference compound]	–	0.39 (≈ 0.131 µg/mL)	potency with exogenous indole or L-Trp (Mtb): significantly attenuated; IC50 (TrpAB α reaction): 0.1 ± 0.06 µM; IC50 (TrpAB β reaction): 0.37 ± 0.07 µM
O=C(Nc1ccc2[nH]ccc2c1)c1ccc(OCC(F)(F)F)nc1 [C6, N-(1H-indol-5-yl)-6-(2,2,2-trifluoroethoxy)nicotinamide]	50 (≈ 16.8 µg/mL)	–	–
O=C(Nc1ccc2cc[nH]c2c1)c1ccc(OCC(F)(F)F)nc1 [C7, N-(1H-indol-6-yl)-6-(2,2,2-trifluoroethoxy)nicotinamide]	50 (≈ 16.8 µg/mL)	–	–
O=C(Nc1cccc2cc[nH]c12)c1ccc(OCC(F)(F)F)nc1 [C8, N-(1H-indol-7-yl)-6-(2,2,2-trifluoroethoxy)nicotinamide]	9.4 (≈ 3.15 µg/mL)	–	–
Cn1ccc2c(NC(=O)c3ccc(OCC(F)(F)F)nc3)cccc21 [C9, N-(1-methyl-1H-indol-4-yl)-6-(2,2,2-trifluoroethoxy)nicotinamide]	50 (≈ 17.5 µg/mL)	–	–
FC(F)(F)COc1ccc(CNc2cccc3[nH]ccc23)cn1 [C10, N-((6-(2,2,2-trifluoroethoxy)pyridin-3-yl)methyl)-1H-indol-4-amine]	50 (≈ 16.1 µg/mL)	–	–

Molecule	MIC (M. tuberculosis H37Rv) [µM]	MIC (M. tuberculosis H37Rv; read-out: MIC) [µM]	other results
O=C(Nc1ccc(OCC(F)(F)F)nc1)c1cccc2[nH]ccc12 [C11, N-(6-(2,2,2-trifluoroethoxy)pyridine-3-yl)-1H-indole-4-carboxamide]	50 (≈ 16.8 µg/mL)	–	–
O=C(Nc1cccc2c1CCN2)c1ccc(OCC(F)(F)F)nc1 [C12, N-(indolin-4-yl)-6-(2,2,2-trifluoroethoxy)nicotinamide]	50 (≈ 16.9 µg/mL)	–	–
CN(C(=O)c1ccc(OCC(F)(F)F)nc1)c1cccc2[nH]ccc12 [C13, N-(1H-indol-4-yl)-N-methyl-6-(2,2,2-trifluoroethoxy)nicotinamide]	–	25 (≈ 8.73 µg/mL)	–
O=C(Nc1cccc2[nH]cnc12)c1ccc(OCC(F)(F)F)cn1 [C14, N-(1H-benzo[d]imidazol-4-yl)-5-(2,2,2-trifluoroethoxy)picolinamide]	–	50 (≈ 16.8 µg/mL)	–
O=C(Nc1ccnc2[nH]ccc12)c1ccc(OCC(F)(F)F)cn1 [C15, N-(1H-pyrrolo[2,3-b]pyridin-4-yl)-5-(2,2,2-trifluoroethoxy)picolinamide]	–	50 (≈ 16.8 µg/mL)	–
O=C(Nc1cccc2[nH]ccc12)c1ccc(OCC(F)(F)F)nn1 [C16, N-(1H-indol-4-yl)-6-(2,2,2-trifluoroethoxy)pyridazine-3-carboxamide]	–	2.3 (≈ 0.773 µg/mL)	–
Cc1ccc(OCC(=O)Nc2cccc3[nH]ccc23)cc1 [C17, N-(1H-indol-4-yl)-2-(p-tolyloxy)acetamide]	–	1.56 (≈ 0.437 µg/mL)	–
O=C(COCC1CC1)Nc1cccc2[nH]ccc12 [C18, 2-(cyclopropylmethoxy)-N-(1H-indol-4-yl)acetamide]	–	3.13 (≈ 0.765 µg/mL)	–
O=C(Nc1cccc2[nH]ccc12)[C@H]1C[C@@H](Oc2ccccc2)C1 [C19, (1s,3s)-N-(1H-indol-4-yl)-3-phenoxycyclobutane-1-carboxamide]	–	3.13 (≈ 0.959 µg/mL)	–
CN(CC(F)(F)F)c1ccc(C(=O)Nc2cccc3[nH]ccc23)cn1 [C20, N-(1H-indol-4-yl)-6-(methyl(2,2,2-trifluoroethyl)amino)nicotinamide]	–	4.7 (≈ 1.64 µg/mL)	–
Cc1ccc(C(=O)Nc2cccc3[nH]ccc23)o1 [C21, N-(1H-indol-4-yl)-5-methylfuran-2-carboxamide]	–	6.25 (≈ 1.5 µg/mL)	–
O=P(O)(O)OC[C@@H](O)[C@H](O)c1c[nH]c2ccccc12 [IGP, indole-3-glycerol phosphate]	–	–	Km (TrpAB WT; read-out: apparent KM IGP): 76.9 ± 1.1 µM
NNC(=O)c1ccncc1 [INH, isoniazid, reference compound]	–	0.16 (≈ 0.0219 µg/mL)	–
N[C@@H](CO)C(=O)O [L-Ser, L-serine]	–	–	Km (TrpAB β reaction; read-out: KM L-Ser of TrpAB β-half reaction): 2900 ± 300 µM; Km (TrpAB WT; read-out: apparent KM L-Ser): 550 ± 230 µM
N-(1H-indol-4-yl)-6-(2,2,2-trifluoroethoxy)nicotinamide [C1]	–	–	MIC vs M. smegmatis mc2155 (M. smegmatis mc2155): > 100 µM; reduction in intracellular Mtb titer [1]: 1.5 log; IC50 (TrpE WT): 242 ± 53 µM; toxicity to J774 macrophages (J774 macrophages): not toxic
